Reference: patent US20220296595A1, “CDK INHIBITORS” (QILU REGOR THERAPEUTICS INC., priority 2019, published 2022)
Where two headings read alike, the source gives them in different places.

Assays:
T47D breast cancer cells = test: Anti-proliferation assay in T47D cell (Cyquant, day 6); format: cell-based, human; conditions: Homo sapiens, T47D, read-out: T47D IC50
Summary of the method: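 Cells were grown in RPMI 1640 with 10% FBS at 37 °C and dosed the day after plating at ten concentrations, 10 μM to 0.51 nM in 3-fold steps. CyQuant fluorescence (ex 485/em 535 nm) was read on day 6. IC50 was fitted from baseline-subtracted viability curves, with the baseline read after overnight culture.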

CDK2/CyclinE1 = target: T1, CDK2/CyclinE1 (Homo sapiens, UniProt P24941); test: Assay for inhibition of CDK2/CyclinE1 (Caliper microfluidic kinase assay); format: biochemical; conditions: CDK2/CyclinE1, 100 μM ATP; read-out: CDK2 IC50
T1 construct: purchased SignalChem C29-18G
Summary of the method: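 Caliper microfluidic mobility-shift assay: 5 nM CDK2/CyclinE1, 100 μM ATP, 5 μM FL-18 peptide (5-FAM-QSPKKG-NH2) in pH 7.5 HEPES buffer with MgCl2, DTT, BSA, Triton X-100. Incubated 3 hours at room temperature, EDTA-stopped; IC50 from 4-parameter sigmoidal fit.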

CDK4/CyclinD1 = target: T2, CDK4/CyclinD1 (Homo sapiens, UniProt P11802); test: Assay for inhibition of CDK4/CyclinD1 (Caliper microfluidic kinase assay); format: biochemical; conditions: CDK4/CyclinD1, 200 μM ATP
T2 construct: purchased Thermofisher PR8064A
Summary of the method: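 Caliper microfluidic mobility-shift assay tracking phosphorylation of 1 μM FL-34 peptide by 1 nM CDK4/CyclinD1 with 200 μM ATP in HEPES pH 7.5 buffer with 10 mM MgCl2. Reaction ran 3 h at room temperature, was stopped with EDTA, and IC50 came from a 4-parameter sigmoidal fit.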

[1] = system: phosphorylation of Retinoblastoma Protein (pRb Ser807/811 or Ser780) in T47D cells; test: Inhibition of phosphorylation of retinoblastoma protein (pRb) in T47D cell (ELISA); format: cell-based, human; conditions: Homo sapiens, T47D, read-out: Phospho T47D Ser807 IC50, pRb Ser807 phosphorylation, T47D cells
Method: T47D breast cancer cells from American Type Culture Collection (ATCC, HTB-133) were plated at 40,000 cells/well in 96-well plates, and were incubated in RPMI 1640 medium (Gibco, 31800105) with 10% Fetal Bovine Serum (FBS, Biowest, FB-1058). Cells were then allowed to adhere overnight at 37° C., 5% CO2. The following day, compounds were titrated in a 3-fold dilution scheme, and the highest compound concentration tested was […]. After 24 hours incubation with compounds, cells were lysed in ice-cold lysis buffer containing phosphatase inhibitor cocktail and 1 mM PMSF. Cell lysates (50 μL/well) were then transferred to ELISA plates (pRb Ser807/811 ELISA kit, Cell Signaling, 13152 or pRb Ser780 ELISA kit, Cell Signaling, 13016)). Plates were incubated overnight at 4° C., with constant slow speed shaking. After incubation, plates were washed following manufacturer's recommendations, and then 100 μL reconstituted detection antibody was added to each well and incubated for 1 hour at 37° C. After incubation, plates were washed, and then 100 μL reconstituted HRP-linked secondary antibody was added to each well and incubated for 30 mins at 37° C. After incubation, plates were washed. Then, 100 μL TMB substrate was added to each well and incubated for 10 min at 37° C. or 30 min at 25° C. Finally, 100 μL of STOP solution was added to each well and mixed gently for a few seconds. Plates were read on the Envision plate reader (PerkinElmer, 2104-0010) using the 96-well […] mode. IC50 values were calculated using 4 parameter sigmoidal dose-response model of Xlfit5/GraphPad Prism 5 software.

CDK6/CyclinD3 = target: T3, CDK6/CyclinD3 (Homo sapiens, UniProt Q00534); test: Assay for inhibition of CDK6/CyclinD3 (Caliper microfluidic kinase assay); format: biochemical; conditions: CDK6/CyclinD3, 300 μM ATP
T3 construct: purchased Carna 04-107
Summary of the method: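 Caliper mobility-shift readout of FAM-labelled peptide (FL-34, 1 μM) phosphorylation by 2 nM CDK6/CyclinD3 at 300 μM ATP in HEPES pH 7.5 buffer with MgCl2, DTT; 3 h at room temperature, EDTA stop. IC50 from 4-parameter sigmoidal fit.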

T2 sequence (P11802 whole entry): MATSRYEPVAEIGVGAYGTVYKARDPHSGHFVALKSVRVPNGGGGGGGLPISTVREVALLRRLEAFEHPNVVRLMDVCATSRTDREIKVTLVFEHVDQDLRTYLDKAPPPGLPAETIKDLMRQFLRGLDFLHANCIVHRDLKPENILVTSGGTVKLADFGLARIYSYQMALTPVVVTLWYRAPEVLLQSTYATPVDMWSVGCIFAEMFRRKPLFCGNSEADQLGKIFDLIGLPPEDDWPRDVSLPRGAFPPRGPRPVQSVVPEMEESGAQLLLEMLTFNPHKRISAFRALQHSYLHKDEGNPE
T2 sequence (P24385 whole entry partner): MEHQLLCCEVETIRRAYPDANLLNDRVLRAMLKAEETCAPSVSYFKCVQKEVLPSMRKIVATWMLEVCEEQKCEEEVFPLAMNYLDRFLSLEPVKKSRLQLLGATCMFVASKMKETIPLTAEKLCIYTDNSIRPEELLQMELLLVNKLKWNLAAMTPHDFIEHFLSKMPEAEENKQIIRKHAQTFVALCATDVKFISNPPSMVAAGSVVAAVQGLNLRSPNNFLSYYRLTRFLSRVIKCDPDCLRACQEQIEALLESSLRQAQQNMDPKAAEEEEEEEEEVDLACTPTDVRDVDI
T3 sequence (Q00534 whole entry): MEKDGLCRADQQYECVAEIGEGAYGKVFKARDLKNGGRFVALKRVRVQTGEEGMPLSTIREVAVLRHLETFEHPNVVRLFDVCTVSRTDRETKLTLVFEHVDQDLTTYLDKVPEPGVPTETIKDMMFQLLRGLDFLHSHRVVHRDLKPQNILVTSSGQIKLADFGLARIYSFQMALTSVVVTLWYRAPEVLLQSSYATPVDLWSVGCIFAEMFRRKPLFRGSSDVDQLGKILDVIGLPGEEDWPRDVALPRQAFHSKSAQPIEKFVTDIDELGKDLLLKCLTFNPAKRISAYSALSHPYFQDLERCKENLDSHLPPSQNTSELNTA
T3 sequence (P30281 whole entry partner): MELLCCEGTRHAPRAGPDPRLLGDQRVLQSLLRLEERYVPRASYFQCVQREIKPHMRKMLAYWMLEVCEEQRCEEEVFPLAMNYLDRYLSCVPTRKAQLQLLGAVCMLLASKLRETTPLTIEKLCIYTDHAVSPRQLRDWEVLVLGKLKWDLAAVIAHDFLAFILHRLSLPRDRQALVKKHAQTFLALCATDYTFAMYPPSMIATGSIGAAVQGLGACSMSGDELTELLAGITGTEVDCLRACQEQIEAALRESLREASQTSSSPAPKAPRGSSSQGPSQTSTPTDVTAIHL

SMILES | IC50 (T47D breast cancer cells; anti-proliferation, T47D cells) | IC50 (CDK2/CyclinE1) | IC50 (CDK4/CyclinD1) | IC50 [1] | IC50 (CDK6/CyclinD3) | IC50 (T47D breast cancer cells)
CC(C)c1cnn2ccc(-c3nc(Nc4ccc(N5CCN(C6COC6)CCC5=O)cn4)ncc3F)cc12 [Synthetic Example 43] | < 100 nM | 10 to 100 nM | < 10 nM | < 100 nM | 10 to 100 nM | 
CC(C)n1cnc2c1CN(c1ccnc(Nc3ccc(N4CCOCC4=O)cn3)n1)CC2 [Synthetic Example 57] | 100 to 500 nM | 10 to 100 nM | < 10 nM | < 100 nM | 100 to 1000 nM | 
CC1(C)COc2c(F)cc(-c3ccnc(Nc4ccc(N5CCNCC5=O)cn4)n3)cc21 [Synthetic Example 59] | < 100 nM | 10 to 100 nM | < 10 nM | < 100 nM | 10 to 100 nM | 
CC(C)n1cnc2c(F)nc(-c3ccnc(Nc4ccc(N5CCOCC5=O)cn4)n3)cc21 [Synthetic Example 61] | < 100 nM | 10 to 100 nM | < 10 nM | < 100 nM | 10 to 100 nM | 
COc1nc(-c2nc(Nc3ccc(N4CCC(N(C)C)CC4=O)cn3)ncc2F)cc2c1nc(C)n2C(C)C (stereo not shown) [Synthetic Example 62, 4-(dimethylamino)-1-[6-[[5-fluoro-4-(1-isopropyl-4-methoxy-2-methyl-imidazo[4,5-c]pyridin-6-yl)pyrimidin-2-yl]amino]-3-pyridyl]piperidin-2-one] | < 100 nM | > 1000 nM | < 10 nM | < 100 nM | 10 to 100 nM | 
COc1nc(-c2nc(Nc3ccc(N4CCNCC4)cn3)ncc2F)cc2c1nc(C)n2C(C)C [Synthetic Example 106] | 100 to 500 nM | > 1000 nM | < 10 nM | < 100 nM | 10 to 100 nM | 
COc1nc(-c2nc(Nc3ccc(N4CCN(S(C)(=O)=O)CC4=O)cn3)ncc2F)cc2c1nc(C)n2C(C)C [Synthetic Example 127] | 100 to 500 nM | 100 to 1000 nM | < 10 nM | 100 to 500 nM | 10 to 100 nM | 
CCN1CCN(c2ccc(Nc3ncc(F)c(-c4cc5c(nc(C)n5C(C)C)c(OC)n4)n3)nc2)C(=O)C1 [Synthetic Example 128] |  | > 1000 nM | < 10 nM | < 100 nM | 10 to 100 nM | 100 to 500 nM
CN(C)C1CCN(c2ccc(Nc3nccc(-c4ccn5ncc(C(C)(C)C)c5c4)n3)nc2)C(=O)C1 (stereo not shown) [Synthetic Example 175] | < 100 nM | < 10 nM | < 10 nM | < 100 nM | < 10 nM | 
CNC1CCN(c2ccc(Nc3nccc(-c4ccn5ncc(C(C)C)c5c4)n3)nc2)C(=O)C1 (stereo not shown) [Synthetic Example 204, 1-[6-[[4-(3-isopropylpyrazolo[1,5-a]pyridin-5-yl)pyrimidin-2-yl]amino]-3-pyridyl]-4-(methylamino)piperidin-2-one] | < 100 nM | < 10 nM | < 10 nM | < 100 nM | < 10 nM | 
Cc1nc2c(F)nc(-c3ccnc(Nc4ccc(N5CCCC(N(C)C)C5=O)cn4)n3)cc2n1C(C)C (stereo not shown) [Synthetic Example 301, 3-(dimethylamino)-1-[6-[[4-(4-fluoro-1-isopropyl-2-methyl-imidazo[4,5-c]pyridin-6-yl)pyrimidin-2-yl]amino]-3-pyridyl]piperidin-2-one] | < 100 nM | > 1000 nM | < 10 nM | < 100 nM | < 10 nM | 
CC(C)c1cnn2ccc(-c3nc(Nc4ccc(N5CCC(N(C)C)CC5=O)cn4)ncc3F)cc12 (stereo not shown) [compound 3] | < 100 nM | 10 to 100 nM | < 10 nM | < 100 nM | 10 to 100 nM | 
CC(C)c1cnn2ccc(-c3nc(Nc4ccc(N5CCOCC5=O)cc4F)ncc3F)cc12 [compound 7] | 100 to 500 nM | < 10 nM | < 10 nM | 100 to 500 nM | 10 to 100 nM | 
CC(C)c1cnn2ccc(-c3nc(Nc4ccc(N5CCOCC5=O)cc4)ncc3F)cc12 [compound 25] | < 100 nM | < 10 nM | < 10 nM | < 100 nM | 10 to 100 nM | 
CC(C)c1cnn2ccc(-c3nc(Nc4ccc(N5CCOCC5=O)c(F)c4)ncc3F)cc12 [compound 26] | 100 to 500 nM | < 10 nM | < 10 nM | < 100 nM | 10 to 100 nM | 
CC(C)c1cnn2ccc(-c3nc(Nc4ccc(S(N)(=O)=O)cc4)ncc3F)cc12 [compound 27] | < 100 nM | < 10 nM | 10 to 100 nM | 100 to 500 nM | 100 to 1000 nM | 
CC(C)c1cnn2ccc(-c3ccnc(Nc4ccc(N5CCOCC5=O)cn4)n3)cc12 [compound 28] | < 100 nM | < 10 nM | < 10 nM | < 100 nM | 10 to 100 nM | 
CC(C)c1cnn2ccc(-c3ccnc(Nc4ccc(N5CCCNCC5=O)cn4)n3)cc12 [compound 30] | 100 to 500 nM | 10 to 100 nM | < 10 nM | < 100 nM | 10 to 100 nM | 
CC(C)c1cnn2cc(-c3ccnc(Nc4ccc(N5CCNCCC5=O)cn4)n3)ccc12 [compound 31] | < 100 nM | 10 to 100 nM | < 10 nM | < 100 nM | 10 to 100 nM | 
CC(C)c1cnn2ccc(-c3nc(Nc4ccc(N5CCCNCC5=O)cn4)ncc3F)cc12 [compound 33] | < 100 nM | 10 to 100 nM | < 10 nM | < 100 nM | 10 to 100 nM | 
CC(C)c1cnn2ccc(-c3nc(Nc4ccc(N5CCNCCC5=O)cn4)ncc3F)cc12 [compound 34] | < 100 nM | 10 to 100 nM | < 10 nM | < 100 nM | 10 to 100 nM | 
CC(C)c1cnn2ccc(-c3ccnc(Nc4ccc(N5CCNCC5=O)cn4)n3)cc12 [compound 37] | < 100 nM | < 10 nM | < 10 nM | < 100 nM | 10 to 100 nM | 
CC(C)c1cnn2ccc(-c3ccnc(Nc4ccc(N5CCN(C6CCNCC6)CC5=O)cn4)n3)cc12 [compound 41] | < 100 nM | 10 to 100 nM | < 10 nM | < 100 nM | 10 to 100 nM | 
CC(C)c1cnn2ccc(-c3nc(Nc4ccc(N5CCN(C6CNC6)CCC5=O)cn4)ncc3F)cc12 [compound 42] | < 100 nM | 10 to 100 nM | < 10 nM | < 100 nM | 10 to 100 nM | 
CCN1CCC(Cn2ccc(Nc3ncc(F)c(-c4ccn5ncc(C(C)C)c5c4)n3)cc2=O)CC1 [compound 44] | > 1000 nM | 100 to 1000 nM | < 10 nM | 500 to 1000 nM | 10 to 100 nM | 
CCN1CCC(COc2cc(Nc3ncc(F)c(-c4ccn5ncc(C(C)C)c5c4)n3)ccn2)CC1 [compound 45] | 100 to 500 nM | < 10 nM | < 10 nM | 500 to 1000 nM | 10 to 100 nM | 
CC(C)c1cnn2ccc(-c3nc(Nc4ccc(N5CCN(C)CCC5=O)cn4)ncc3F)cc12 [compound 46] | < 100 nM | 10 to 100 nM | < 10 nM | < 100 nM | 10 to 100 nM | 
CCN1CCC(=O)N(c2ccc(Nc3ncc(F)c(-c4ccn5ncc(C(C)C)c5c4)n3)nc2)CC1 [compound 47] | < 100 nM | 10 to 100 nM | < 10 nM | < 100 nM | 10 to 100 nM | 
CCN1CCN(c2ccc(Nc3ncc(F)c(-c4ccn5ncc(C(C)C)c5c4)n3)nc2)C(=O)C1 [compound 48] | < 100 nM | 10 to 100 nM | < 10 nM | < 100 nM | 10 to 100 nM | 
